The record followed here is patent US10822315B2, “5-benzylidene-4-oxazolidinones” (NORTH CAROLINA STATE UNIVERSITY, priority 2016, dated 2020).

For experiment [1], the system named is MRSA Strain 1770. In words: Biofilm dispersion assay (crystal violet). The class given is cell-based, Staphylococcus aureus. The procedure: (§1) General Information. Methicillin-resistant Staphylococcus aureus (MRSA) strains were obtained from the Laboratory of Professor Christian Melander (NCSU) ATCC (33591, BAA 44, BAA 1685, BAA 1770, BAA 43 300) and colonies were grown on solid media as instructed. Mueller-Hinton broth (MHB, 211443-BD), tryptic soy broth (TSB, Remel: R455052) and D-glucose (CAS: 492-62-6) were purchased from Fisher Scientific. Tryptic soy agar (TSA, cat. #22091) and Linezolid (cat. # P70014) were purchased from Sigma-Aldrich. Bacteria for biofilm inhibition and dispersion assays were cultured overnight in TSBG (tryptic soy broth with 0.5% glucose supplement). All assays were run in duplicate and repeated at least two separate times for MIC assays and at least four separate times for biofilm inhibition and dispersion assays. All compounds were dissolved molecular biology grade DMSO as 100 mM stock solutions and further diluted to 10 and 1 mM stock solutions as needed. Optical densities were measured using a Thermo Scientific Genesys 20 spectrophotometer. Data for biofilm inhibition and dispersion assays was collected using a BioTek ELx808 Microplate Reader. All graphs were generated and analyzed using GraphPad Prism 7.
(§2) Biofilm Dispersion Assay. Studies were performed using the standard method described in J. J. Richards, T. E. Ballard and C. Melander, Org Biomol Chem, 2008, 6, 1356-1363. Briefly, dispersion assays were performed by taking an overnight culture of bacterial strain and subculturing it at an OD600 of 0.01 into the necessary growth liquid medium. The resulting bacterial suspension was aliquoted (100 μL) into the wells of a 96-well PVC microtiter plate. Plates were then wrapped in GLAD Press n' Seal followed by an incubation under stationary conditions at an ambient temperature. After 24 hours, the media was discarded from the wells and the plates were washed thoroughly with tap water. Predetermined concentrations of the test compound were then made in the same medium used to initially grow the biofilms and then aliquoted (100 μL) into the wells of the 96-well PVC microtiter plate with the established biofilms. Plates were then wrapped in GLAD Press n'Seal and incubated under stationary conditions at 37° C. After 24 hours, the media was discarded from the wells and the plates were washed thoroughly with tap water. Plates were then stained with 100 μL of 0.1% solution of crystal violet (CV) and then incubated at room temperature for 30 minutes. Plates were then washed with tap water again and the remaining stain was solubilized with 200 μL of 95% ethanol. Biofilm dispersion was quantitated by measuring the OD540 for each well by transferring 125 μL of the solubilized CV stain into a polystyrene microtiter dish for analysis. Biofilm inhibition was quantified by measuring the OD540 of each well and calculated as a percentage of the control (no compound), a negative control lane wherein no biofilm was formed served as a background and was subtracted out.
(§3) Percent dispersion was then plotted against concentration in Prism 7. Each of the four experiments were plotted separately and analyzed by a normalized nonlinear regression. The IC50 values reported represent an arithmetic mean of the four IC50 values. Biofilm data represent four separate experiments, with each experiment performed in duplicate (average of 8 data points for each concentration tested, unless otherwise noted)

The test system of experiment [2] is MRSA Strain 1685. Briefly: Biofilm dispersion assay (crystal violet). It is filed as cell-based, Staphylococcus aureus. The procedure:
as §1, §2, §3

Experiment [3] relates to MRSA Strain 43300. Briefly: Biofilm dispersion assay (crystal violet). It is filed as cell-based, Staphylococcus aureus. Particulars: for % Biofilm Dispersion (5/40 μM): MRSA strain 43300. The procedure:
as §1, §2, §3

The subject of experiment [4] is MRSA ATCC BAA-44. In words: Broth microdilution MIC determination. It is filed as cell-based, Staphylococcus aureus. Particulars: for MIC: Staphylococcus aureus. A general note: Broth dilution looks for growth in wells or tubes with falling amounts of substance.
For experiment [5], the system named is MRSA ATCC 33591. In words: Broth microdilution MIC determination. The class given is cell-based. Particulars: Staphylococcus aureus, Table 1, read-out: Antimicrobial Activity MIC. The procedure: as §1
(§4) Broth microdilution protocol for minimum inhibition concentration (MIC) determination. Studies were performed using the standard method prescribed by the Clinical and Laboratory Standards Institute (CLSI) M07-A8, Vol. 29 (2), which is hereby incorporated herein by reference. Briefly, fresh Mueller-Hinton broth (MHB) ˜3 ml, was inoculated (5×10^5 CFU mL^−1) with MRSA (ATCC 33591) methicillin-resistant Staphylococcus aureus. The resulting bacterial suspension was aliquoted (1 mL) into culture tubes and test compound (10 mM DMSO stock solution) was added to reach the final concentration of the interest. Bacteria not treated with the antimicrobial compound served as the control. Rows 2-12 of a 96-well microtiter plate were filled with remaining bacterial subcultures. The samples containing test compound were aliquoted (200 μL) into the first row wells of the microtiter plate (2 wells per compound). Row 1 wells were mixed 6-8 times and 100 μL was transferred down to row 2. Row 2 wells were mixed 6-8 times, followed by a 100 μL transfer from row 2 down to row 3. The rest of the rows of the plate were serially diluted in similar fashion. The plate was covered with sealing tape for 96-well plates (ThermoFisher) and incubated under stationary conditions at 37° C. A duplicate of the plate was prepared.

Experiment [6] relates to MRSA Strain 1770. Briefly: Broth microdilution MIC determination. It is filed as cell-based. Particulars: Staphylococcus aureus. The protocol:
as §1, §4

The subject of experiment [7] is MRSA Strain 1685. In words: Broth microdilution MIC determination. The class given is cell-based. As to conditions: Staphylococcus aureus. The procedure:
as §1, §4

Experiment [8] deals with MRSA Strain 43300. In words: Broth microdilution MIC determination. Particulars: Staphylococcus aureus. It is filed as cell-based. The protocol:
as §1, §4

The test system of experiment [9] is planktonic bacteria. Briefly: Growth curve analysis. The class given is cell-based.
Experiment [10] deals with MRSA ATCC BAA-44. Briefly: Biofilm dispersion assay (crystal violet, pre-formed biofilm). The class given is cell-based. As to conditions: Staphylococcus aureus, Table 2.
Where [11] appears, read: MRSA ATCC BAA 44, Table 2, read-out: MIC.
The mark [12] stands for this setting: MRSA ATCC BAA-44, Table 1, read-out: Antimicrobial Activity MIC.

Structures are written as SMILES. In brackets after ≈: the same amount, converted by molar mass. Where two headings read alike, the source gives them in different places.

On to `O=C1NC(C(Cl)(Cl)Cc2ccccc2)O/C1=C\c1ccc(C(F)(F)F)cc1` (stereo not drawn) [Compound 2, (Z)-2-(1,1-dichloro-2-phenylethyl)-5-(4-(trifluoromethyl)benzylidene)oxazolidin-4-one], for which the “% Biofilm Dispersion (5/40 μM)” value in [1] (5 μM) is given as 29/− %; in experiment [2] (5 μM) it was 15/− %; in experiment [3] (5 μM), 37/− %. Further, in experiment [3] (MRSA strain 43 300), the “biofilm dispersion activity (in words)” value is given as “no dose-dependent dispersion activity”. In addition, the MIC in experiment [4] (setting [11]) is 6 µg/mL (≈ 14.4 µM); in experiment [4] (setting [12]), 6 µg/mL (≈ 14.4 µM); in [5], 6 µg/mL (≈ 14.4 µM); in experiment [6], 8 µg/mL (≈ 19.2 µM); in [7], 8 µg/mL (≈ 19.2 µM); in [8] it was 8 µg/mL (≈ 19.2 µM). Moreover, the “fold enhancement of the MIC” value in [4] (benzyl side chain (2) versus n-butyl side chain (1)) is recorded as 2 fold. Further, the figures for the “growth curve versus untreated control (in words)” value in experiment [9] (1 μM) and in experiment [9] (5 μM) were “modest deviation from the untreated control” and “moderate growth inhibition in the first 8 hours”, respectively. In [10], this compound had an inhibition at 40 µM of 69%.
Regarding `CCCCC(Cl)(Cl)C1NC(=O)/C(=C/c2ccc(C(F)(F)F)cc2)O1` (stereo not drawn) [Compound 1, (Z)-2-(1,1-dichloropentyl)-5-(4-(trifluoromethyl)benzylidene)oxazolidin-4-one], the “% Biofilm Dispersion (5/40 μM)” value was 52% in experiment [1] (5 μM); 46% in experiment [1] (40 μM); 24% in experiment [2] (5 μM); 61% in experiment [2] (40 μM); 23% in [3] (5 μM); 63% in experiment [3] (40 μM). Also, the MIC in experiment [4] (MRSA ATCC BAA-44, read-out: MIC) amounted to 12000 µg/mL (≈ 31400 µM); in [4] (setting [11]), 12 µg/mL (≈ 31.4 µM); in experiment [4] (setting [12]), 12 µg/mL (≈ 31.4 µM); in [5], 12 µg/mL (≈ 31.4 µM); in [6] it was 16 µg/mL (≈ 41.9 µM); in experiment [7] it was 16 µg/mL (≈ 41.9 µM). In experiment [8], this compound showed an MIC of 8 µg/mL (≈ 20.9 µM). Also, the “growth curve versus untreated control (in words)” value in experiment [9] (1 μM) and in experiment [9] (5 μM) was “substantial inhibition of growth in the first 8 hours” in each case. The same compound yielded an inhibition at 40 µM in [10] of 87%.

Usually MIC stands for the least concentration at which growth counts as inhibited. In general, inhibition refers to the percentage by which the read-out fell short of the control. High values mean strong suppression, low ones little suppression.
